This is an account of results in patent publication US8163803B2 (Fundação Oswaldo Cruz—FIOCRUZ, priority 2004, dated 2012).

For experiment [1], the system named is Na^+ currents in GH3 cells. Nature of the experiment: Tonic block of Na+ currents in GH3 cells, whole cell patch clamp. Type of experiment: cell-based, Rat. The note with it: for IC50: GH3 cells, holding potential −80 mV to +60 mV step pulse, read-out: IC50, blockade of Na+ currents. The method, then: Ion channel currents were recorded by means of a patch clamp technique. The cells cultured on the cover glass were placed in a chamber fixed to a microscope stage and continuously perfused with extracellular Saline (A) solution (in mM); 150 NaCl, 5 KCl, 1 MgCl2, 0.01 CaCl2, 1 EGTA, 10 HEPES, 2 BaCl2, 0.1 CdCl2, pH 7.4 at room temperature (22-25° C.) adjusted with NaOH. The cells were observed using phase contrast mode under an inverted microscope (Axiovert 100, Carl Zeiss, Oberkochem, D Germany). Tight-seal (>10 GΩ) whole cell voltage-clamp recordings were performed with an Axopatch-1D amplifier (Axon Instruments, San Mateo, Calif.). […] Fifteen minutes after rupture of the patch membrane, we started to record ion channel currents. Pulse protocols and data acquisition were controlled by Digidata 1320 interface (Axon Instruments, Palo Alto, Calif.), and acquired on a personal computer using Clampex 9 software. The Na^+ current recordings were filtered at 1 kHz and sampled at 8 kHz. About 26% of series resistance was electronically compensated. Drugs were applied to the recording chamber by gravity. Perfusion rate was maintained at 0.8-1.1 ml/min and bath volume was of 50 μl. […] Voltage-gated Na^+ currents were recorded from these cells in the presence or absence of treatment.
For orientation: Patch clamp records ionic current or voltage across a cell membrane.

In the next experiment the test system is patients. The note with it: long-term treatment, nebulized; cited from earlier work.

Molecules are shown by their SMILES.

Turning to `CCN(CC)CC(=O)Nc1ccc(C)cc1C` [JM24-1, 2-dyethylamine-2′,4′-acetoxylidide], the IC50 in experiment [1] turned out to be 5200 µM. Besides, the “50% inhibitory concentration, times higher than lidocaine” value in experiment [1] (ratio to lidocaine IC50) came to 29 times.
For the compound `CCN(CC)CC(=O)Nc1c(C)cccc1C` [Lidocaine, 1-(2-(dyethylamine)N-dymethylfenyl)-acetamide, reference compound], in experiment [1], the IC50 was 180 µM. Besides, in the experiment on patients, the “patients with relief of asthma symptoms and diminished dependency on steroidal anti-inflammatory treatment” value is on record as 20 out of 24.

As usually defined, the IC50 is the concentration that inhibits the measured activity by half.
